Assay results: publication PMC9863556, “Influence of Green Synthesized Zinc Oxide Nanoparticles on Molecular Interaction and Comparative Binding of Azure Dye with Chymotrypsin: Novel Nano-Conjugate for Cancer Phototherapy” (Pharmaceutics, 2022)

Molecular target: α-chymotrypsin (α-Chymo) (Bos taurus, UniProt P00766)
Assay: UV-Visible titration (Benesi-Hildebrand binding constant), supported by tryptophan fluorescence quenching (Ksv […] at […] K, static) and CD

Kd: 17.5 µM
Structure (SMILES): CNc1ccc2nc3ccc(N)cc3[s+]c2c1 [AzC, AzureC]
